The results in this text go back to US12161722B2, “Bifunctional heterocyclic compound having BTK degradation function via ubiquitin proteasome pathway, and use thereof” (KOREA RESEARCH INSTITUTE OF CHEMICAL TECHNOLOGY, priority 2021, dated 2024).

The target of the assay is T1, WT BTK protein (Homo sapiens, UniProt Q06187).
T1 construct: measured for intracellular BTK protein levels by Western blotting; endogenous in cells; host or cells: TMD-8 or RAMOS cells
In words: BTK protein degradation assay (Western blotting), WT BTK. The assay is classed as cell-based. Conditions: concentration range accounting for 50% degradation of WT BTK protein, TMD-8 or RAMOS cells, 24 hours. The procedure:
TMD-8, RAMOS, or 293T BTK MUT (C481S) cells were treated with the synthesized compounds and measured for intracellular BTK protein levels by Western blotting. The protocol of the experiment using TMD-8 cells is as follows.
TMD-8 cells were resuspended in an RPMI1640 medium (Hyclone, SH30027.01, 10% FBS (Hyclone, SV30207.02), 1% penicillin-streptomycin (Welgene, LS 202-02) and the cell suspension was seeded at a density of 1×10^6 cells/mL in an amount of 1 mL per well into 12-well plates.
The 12-well plates were treated as follows. A 10 mM stock was 1/10 diluted in series with DMSO ([…]) to form final concentrations of 10, 1, 0.1, 0.01, 0.001, and 0.0001 mM. The compounds with such concentrations were applied to cells, followed by harvesting the cells 24 hours later. For a negative control, a 1/10 dilution of DMSO in the medium (3 mL DMSO+27 mL medium) was used.
The 1-mL cell culture in each well was passed many times through a pipette and then transferred into a 1.5-mL microtube before centrifugation (500 g, 5 min, 4° C.). The supernatant was discarded and the cell pellet was washed with PBS. After centrifugation (500 g, 5 min, 4° C.) again, the supernatant was discarded and the cell pellet was taken.
A lysis buffer was prepared as follows. RIPA buffer (Biosesang, RC2038-050-00)+0.5 mM PMSF (SIGMA, P7626)+1×Protease/Phosphatase Inhibitor (Cell signaling, 5872S) was added in an amount […] per well and left for 30 minutes on ice (vortexing at 0 and 30 minutes) before sonication (5 cycles of pulse for 10 seconds and rest for 30 seconds, 70% amplification). The supernatant obtained by centrifugation (15000 g, 15 min, 4° C.) was transferred into a new microtube. Cells in each well of 96-well plates were 1/2 diluted with the RIPA buffer and incubated at 37° C. for 30 minutes with […] of a 50:1 mixture of BCA reagents A and B in BCA Protein Assay Kit (iNtRON, 21071). After being cooled for 10 minutes, the 96-well plates were measured for absorbance at 562 nm on the BioTek, SYNERGY H1 microplate reader. Samples were prepared by protein quantification based on the absorbance measurements and then boiled at 70° C. for 10 minutes. The sample buffer used in the case was prepared by mixing a NuPAGE or a Bolt 4× sample buffer (Invitrogen) and its 10× sample reducing agent depending on the gel to be used, and protein dilution was made in a RIPI buffer.
The samples were loaded in the same amount into a NuPAGE or Bolt Bis-tris 4-12% gradient gel and allowed to run therein (200 V, 35 minutes). The separated proteins were transferred onto a […] NC membrane, using Trans-blot Turbo (BIO-RAD) (1.3 A constant, 25V limit, 15 minutes). The membrane was blocked at room temperature for 1 hour with skim milk or Intercept Blocking Buffer (LI-COR, 927-60001):0.1% TBST=1:1. The membrane was incubated with Anti BTK Rabbit (1:1,000 in 5% skim milk/0.2% TBST, size: 77 kDa, Cell signaling Technology) at 4° C. overnight O/N or at room temperature for 2 hours and with Anti GAPDH Rabbit (1:10,000 in 5% BSA/0.2% TBST, size: 36 kDa, GENETEX) and Anti β-actin mouse (1:10,000 in 5% BSA/0.2% TBST, RT, size: 43 kDa, GENETEX) at room temperature for 1 or 3 hours. Then, the membrane was washed three times with 0.5% TBST for 5 minutes each time before incubation with the second antibody Anti-Rabbit IgG (1:5,000 in 5% Skim milk/TBST, CST), IRDye® 800CW Goat anti-Rabbit IgG Secondary Antibody (1:10,000 in 5% skim/TBST, RT 45 min), or IRDye® 680RD Goat anti-Mouse IgG Secondary Antibody (1:10,000 in 5% skim/TBST, RT 45 min) for 45 minutes at room temperature in a rocker. The membrane was washed five times with 0.5% TBST for 5 minutes in each time, followed by detection with LI-COR, Odyssey. In this regard, the detection proceeded, as it was, for house-keeping genes while using SuperSignal West Pico PLUS Chemiluminescent Substrate or SuperSignal West femto Maximum Sensitivity Substrate for BTK detection. […]

Each structure is given as a SMILES string.

T1 sequence (Q06187 whole entry): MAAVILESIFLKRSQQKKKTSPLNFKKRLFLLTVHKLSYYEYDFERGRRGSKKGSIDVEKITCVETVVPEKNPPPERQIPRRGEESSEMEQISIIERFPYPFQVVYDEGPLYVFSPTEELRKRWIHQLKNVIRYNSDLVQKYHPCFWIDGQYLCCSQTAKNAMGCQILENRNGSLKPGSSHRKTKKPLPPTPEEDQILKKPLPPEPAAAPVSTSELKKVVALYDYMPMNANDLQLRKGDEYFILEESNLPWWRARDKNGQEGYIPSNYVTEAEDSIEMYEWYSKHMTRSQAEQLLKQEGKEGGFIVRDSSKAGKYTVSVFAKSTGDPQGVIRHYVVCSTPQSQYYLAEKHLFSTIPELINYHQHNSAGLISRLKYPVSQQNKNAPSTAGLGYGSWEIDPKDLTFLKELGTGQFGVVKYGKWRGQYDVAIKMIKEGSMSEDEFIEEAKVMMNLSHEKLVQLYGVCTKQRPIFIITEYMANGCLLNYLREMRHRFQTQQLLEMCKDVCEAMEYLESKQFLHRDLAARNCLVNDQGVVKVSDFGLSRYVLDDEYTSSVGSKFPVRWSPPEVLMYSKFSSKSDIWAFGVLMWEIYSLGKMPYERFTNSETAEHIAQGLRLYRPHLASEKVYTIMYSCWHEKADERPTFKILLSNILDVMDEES

On to `Cc1cccc(C)c1Nc1nn(C)c2nc(Nc3ccc4c(c3)CN(C(=O)[C@@H]3CCCN3C(=O)CN3CCN(c5ccc6c(c5)C(=O)N(C5CCC(=O)NC5=O)C6=O)CC3)CC4)ncc12` (stereo partly drawn) [Compound 33, 5-(4-(2-((S)-2-(7-((3-((2,6-Dimethylphenyl)amino)-1-methyl-1H-pyrazolo[3,4-d]pyrimidin-6-yl)amino)-1,2,3,4-tetrahydroisoquinoline-2-carbonyl)pyrrolidin-1-yl)-2-oxoethyl)piperazin-1-yl)-2-(2,6-dioxopiperidin-3-yl)isoindoline-1,3-dione], for which the 50% degradation concentration (DC50) is 0.01 to 1 µM.
Turning to `Cc1cccc(C)c1Nc1nn(C)c2nc(Nc3ccc4c(c3)CN(C(=O)[C@@H]3CCCN3C(=O)COc3ccc5c(c3)C(=O)N(C3CCC(=O)NC3=O)C5=O)CC4)ncc12` (stereo partly drawn) [Compound 34, 5-(2-((S)-2-(7-((3-((2,6-Dimethylphenyl)amino)-1-methyl-1H-pyrazolo[3,4-d]pyrimidin-6-yl)amino)-1,2,3,4-tetrahydroisoquinoline-2-carbonyl)pyrrolidin-1-yl)-2-oxoethoxy)-2-(2,6-dioxopiperidin-3-yl)isoindoline-1,3-dione], the DC50 was 0.01 to 1 µM.
For `Cc1cccc(C)c1Nc1nn(C)c2nc(Nc3ccc4c(c3)CN(CC3CCN(C(=O)CNc5ccc6c(c5)C(=O)N(C5CCC(=O)NC5=O)C6=O)CC3)CC4)ncc12` (stereo not shown) [Compound 36, 5-((2-(4-((7-((3-((2,6-Dimethylphenyl)amino)-1-methyl-1H-pyrazolo[3,4-d]pyrimidin-6-yl)amino)-3,4-dihydroisoquinolin-2 (1H)-yl)methyl)piperidin-1-yl)-2-oxoethyl)amino)-2-(2,6-dioxopiperidin-3-yl)isoindoline-1,3-dione], the DC50 was in the range of 0.0001 to 0.01 µM.
For `Cc1cccc(C)c1Nc1nn(C)c2nc(Nc3ccc4c(c3)CN(CC3CN(C(=O)CN5CCN(c6ccc7c(c6)C(=O)N(C6CCC(=O)NC6=O)C7=O)CC5)C3)CC4)ncc12` (stereo not shown) [Compound 39, 5-(4-(2-(3-((7-((3-((2,6-Dimethylphenyl)amino)-1-methyl-1H-pyrazolo[3,4-d]pyrimidin-6-yl)amino)-3,4-dihydroisoquinolin-2 (1H)-yl)methyl)azetidin-1-yl)-2-oxoethyl)piperazin-1-yl)-2-(2,6-dioxopiperidin-3-yl)isoindoline-1,3-dione] the value was 0.0001 to 0.01 µM; for `Cc1cccc(C)c1Nc1nn(C)c2nc(Nc3ccc4c(c3)CN(CC3CN(C(=O)C5CCN(c6ccc7c(c6)C(=O)N(C6CCC(=O)NC6=O)C7=O)CC5)C3)CC4)ncc12` (stereo not shown) [Compound 40, 5-(4-(3-((7-((3-((2,6-Dimethylphenyl)amino)-1-methyl-1H-pyrazolo[3,4-d]pyrimidin-6-yl)amino)-3,4-dihydroisoquinolin-2 (1H)-yl)methyl)azetidine-1-carbonyl)piperidin-1-yl)-2-(2,6-dioxopiperidin-3-yl)isoindoline-1,3-dione], 0.0001 to 0.01 µM; for `Cc1cccc(C)c1Nc1nn(C)c2nc(Nc3cccc(CNCC4CCN(c5ccc6c(c5)C(=O)N(C5CCC(=O)NC5=O)C6=O)CC4)c3)ncc12` (stereo not shown) [Compound 41, 5-(4-(((3-((3-((2,6-Dimethylphenyl)amino)-1-methyl-TH-pyrazolo[3,4-d]pyrimidin-6-yl)amino)benzyl)amino)methyl)piperidin-1-yl)-2-(2,6-dioxopiperidin-3-yl)isoindoline-1,3-dione], 0.01 to 1 µM.
Next, `Cc1cccc(C)c1Nc1nn(C)c2nc(Nc3cccc(CNCC4CCN(C(=O)C5CCN(c6ccc7c(c6)C(=O)N(C6CCC(=O)NC6=O)C7=O)CC5)CC4)c3)ncc12` (stereo not shown) [Compound 42, 5-(4-(4-(((3-((3-((2,6-Dimethylphenyl)amino)-1-methyl-1H-pyrazolo[3,4-d]pyrimidin-6-yl)amino)benzyl)amino)methyl)piperidine-1-carbonyl)piperidin-1-yl)-2-(2,6-dioxopiperidin-3-yl)isoindoline-1,3-dione]: 0.0001 to 0.01 µM.
`Cc1cccc(C)c1Nc1nn(C)c2nc(Nc3ccc4c(c3)CN(C(=O)C3CCN(C(=O)COc5ccc6c(c5)C(=O)N(C5CCC(=O)NC5=O)C6=O)CC3)CC4)ncc12` (stereo not shown) [Compound 43, 5-(2-(4-(7-((3-((2,6-Dimethylphenyl)amino)-1-methyl-1H-pyrazolo[3,4-d]pyrimidin-6-yl)amino)-1,2,3,4-tetrahydroisoquinoline-2-carbonyl)piperidin-1-yl)-2-oxoethoxy)-2-(2,6-dioxopiperidin-3-yl)isoindoline-1,3-dione]: the DC50 lay within 0.0001 to 0.01 µM.
Next, `Cc1cccc(C)c1Nc1nn(C)c2nc(Nc3ccc4c(c3)CN(C(=O)C3CCN(C(=O)CN5CCN(c6ccc7c(c6)C(=O)N(C6CCC(=O)NC6=O)C7=O)CC5)CC3)CC4)ncc12` (stereo not shown) [Compound 44, 5-(4-(2-(4-(7-((3-((2,6-Dimethylphenyl)amino)-1-methyl-1H-pyrazolo[3,4-d]pyrimidin-6-yl)amino)-1,2,3,4-tetrahydroisoquinoline-2-carbonyl)piperidin-1-yl)-2-oxoethyl)piperazin-1-yl)-2-(2,6-dioxopiperidin-3-yl)isoindoline-1,3-dione]: 0.0001 to 0.01 µM.
Next, `Cc1cccc(C)c1Nc1nn(C)c2nc(Nc3ccc4c(c3)CN(C(=O)C3CCN(C(=O)CNc5ccc6c(c5)C(=O)N(C5CCC(=O)NC5=O)C6=O)CC3)CC4)ncc12` (stereo not shown) [Compound 45, 5-((2-(4-(7-((3-((2,6-Dimethylphenyl)amino)-1-methyl-1H-pyrazolo[3,4-d]pyrimidin-6-yl)amino)-1,2,3,4-tetrahydroisoquinoline-2-carbonyl)piperidin-1-yl)-2-oxoethyl)amino)-2-(2,6-dioxopiperidin-3-yl)isoindoline-1,3-dione]: 0.0001 to 0.01 µM; `Cc1cccc(C)c1Nc1nn(C)c2nc(Nc3ccc4c(c3)CN(CC3CN(c5ccc6c(c5)C(=O)N(C5CCC(=O)NC5=O)C6=O)C3)CC4)ncc12` (stereo not shown) [Compound 47, 5-(3-((7-((3-((2,6-Dimethylphenyl)amino)-1-methyl-1H-pyrazolo[3,4-d]pyrimidin-6-yl)amino)-3,4-dihydroisoquinolin-2 (1H)-yl)methyl)azetidin-1-yl)-2-(2,6-dioxopiperidin-3-yl)isoindoline-1,3-dione]: 0.0001 to 0.01 µM.
Next, `Cc1cccc(C)c1Nc1nn(C)c2nc(Nc3ccc4c(c3)CN(CC3CCN(C(=O)COc5ccc6nnn(C7CCC(=O)NC7=O)c(=O)c6c5)CC3)CC4)ncc12` (stereo not shown) [Compound 48, 3-(6-(2-(4-((7-((3-((2,6-Dimethylphenyl)amino)-1-methyl-1H-pyrazolo[3,4-d]pyrimidin-6-yl)amino)-3,4-dihydroisoquinolin-2 (1H)-yl)methyl)piperidin-1-yl)-2-oxoethoxy)-4-oxobenzo[d][1,2,3]triazin-3 (4H)-yl)piperidin-2,6-one]: 0.0001 to 0.01 µM.
In the case of `Cc1cccc(C)c1Nc1nn(C)c2nc(Nc3ccc4c(c3)CN(CC3CN(C(=O)COc5ccc6c(c5)C(=O)N(C5CCC(=O)NC5=O)C6=O)C3)CC4)ncc12` (stereo not shown) [Compound 49, 5-(2-(3-((7-((3-((2,6-Dimethylphenyl)amino)-1-methyl-1H-pyrazolo[3,4-d]pyrimidin-6-yl)amino)-3,4-dihydroisoquinolin-2 (1H)-yl)methyl)azetidin-1-yl)-2-oxoethoxy)-2-(2,6-dioxopiperidin-3-yl)isoindoline-1,3-dione], the DC50 lay in the range of 0.01 to 1 µM.
